{"source": "paper PMC4388811", "about": "“Co-Solvents as Stabilizing Agents during Heterologous Overexpression in Escherichia coli – Application to Chlamydial Penicillin-Binding Protein 6” (PLoS ONE, 2015)", "target": "T1, PBP6Cp (Chlamydia pneumoniae, UniProt A0A0F7X2J0)", "T1 construct": "native N-terminal signal peptide and C-terminal transmembrane domain removed; OmpA leader (cleaved by E. coli signal peptidase I); C-terminal Strep tag kept; periplasmic expression in E. coli C43(DE3) with betaine", "assay": "TLC of lipid II DD-carboxypeptidase reaction", "format": "biochemical", "details": "lipid II substrate; 50 mM MES pH 5.5, 2 mM MgCl2, 20% DMSO, 37 C, 4 h; inhibitor concentration not given; active-site serine acylation (covalent) described as general beta-lactam mechanism", "data": [{"smiles": "CC1(C)S[C@@H]2[C@H](NC(=O)Cc3ccccc3)C(=O)N2[C@H]1C(=O)O", "note": "[penicillin G]", "values": [{"measurement": "TLC of lipid II DD-carboxypeptidase reaction", "value": "DD-carboxypeptidase activity of wild type PBP6Cp was stalled in the presence of penicillin G"}]}]}
